We go through one molecule from article PMC8810880, “Comprehensive characterization and molecular insights into the salt tolerance of a Cu, Zn-superoxide dismutase from an Indian Mangrove, Avicennia marina” (Scientific Reports, 2022).

The target in the assay is T1, Am_SOD (recombinant Cu, Zn-superoxide dismutase) (Avicennia marina, UniProt Q9AXH2).
T1 construct: full-length 459 bp ORF in pET22b+ (NdeI/XhoI), 6xHis tag (printed as N-terminal); homodimer ~32-33 kDa, monomer ~16 kDa; no signal peptide found
T1 sequence (Q9AXH2 1-152): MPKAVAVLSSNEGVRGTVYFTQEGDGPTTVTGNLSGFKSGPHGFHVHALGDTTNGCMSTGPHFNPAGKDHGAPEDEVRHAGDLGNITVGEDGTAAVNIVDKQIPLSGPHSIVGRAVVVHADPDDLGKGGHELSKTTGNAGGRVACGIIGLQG
The experiment in a line: riboflavin-NBT SOD inhibition assay, A560. Format: biochemical. From the text:
riboflavin-NBT SOD inhibition assay, A560 on Am_SOD (recombinant Cu, Zn-superoxide dismutase) | inhibited in a dose-dependent manner by sodium diethyldithiocarbamate trihydrate, and the IC50 was obtained at […]

Molecules are shown by their SMILES. pIC50: −log10 of the molar value.

As for `CCN(CC)C(=S)S` [DDC, sodium diethyldithiocarbamate trihydrate], the negative logarithm of the IC50 (pIC50) is 2.82.
